Assay results from patent US12478603B2, “Serum metabolites as biomarkers for carnitine treatment of sepsis” (priority 2020, dated 2025).
Entries after “also recorded” stand apart in the source; their conditions may differ. Read-outs that look alike come from different tables or passages of the source.

Columns and labels:
[1] = test system: patients with septic shock; conditions: cited from earlier work; for absolute mortality reduction at 28 days compared to saline placebo: 18 g dose, non-significant
[2] = test system: patients with septic shock; assay: Pharmacometabolomic analysis of the RACE trial: mortality after L-carnitine stratified by pre-treatment serum acetylcarnitine; type: in vivo, human; conditions: for 90-day mortality: high (≥36 μM) pretreatment acetylcarnitine, placebo 100%; for hazard ratio (Mantel-Haenszel) / Kaplan-Meier curve, mortality benefit: 18 g vs placebo
Text: Patient selection: Detailed inclusion and exclusion criteria have been previously reported (see, e.g., Jones (2018) “Effect of Levocarnitine vs Placebo as an Adjunctive Treatment for Septic Shock: The Rapid Administration of Carnitine in Sepsis (RACE) Randomized Clinical Trial” JAMA Netw Open 1: e186076, incorporated herein by reference). Briefly, patients presenting with suspected or confirmed infection and meeting consensus criteria for septic shock including administration of continuous vasopressors despite adequate fluid resuscitation, an elevated lactate>2 mmol/L, and a SOFA score of at least 5 were eligible for inclusion. All patients enrolled in the clinical trial were included in the present analysis with the exception of two patients who withdrew consent following randomization and 12 that lacked a T0 sample (FIG. 6).
Blood sampling. Following consent but prior to initiation of therapy, whole blood was drawn into serum separator tubes (SST; Vacutainer, Becton Dickinson, Franklin Lakes, NJ) and was allowed to clot for at least 30 minutes at room temperature. A portion of whole blood was aliquoted, while the remainder was centrifuged to yield serum. All samples were then frozen at −80° C. within 60 minutes of the initial sample acquisition. This approach has been previously utilized to yield samples appropriate for metabolomics analyses (see, e.g., Puskarich (2015) “Pharmacometabolomics of L-carnitine treatment response phenotypes in patients with septic shock” Ann Am Thorac Soc 12: 46-56, incorporated herein by reference). At the completion of the clinical trial, serum samples were shipped on dry ice to the University of Michigan for assay.
Measurement of Acylcarnitines: Analysis was performed consistent with prior methods (see, e.g., Puskarich (2018) “Septic Shock Nonsurvivors Have Persistently Elevated Acylcarnitines Following Carnitine Supplementation” Shock 49: 412-419, incorporated herein by reference). Briefly, at the time of analysis, serum samples were thawed on ice and extraction solvent was prepared consisting of a 1:1:1 mixture of methanol:acetonitrile:acetone plus a 1:200 dilution of a stock mixture of stable-isotope labeled acylcarnitine standards dissolved according to manufacturer instructions (NSK-B, Cambridge Isotope Laboratories). Acylcarnitine species were then analyzed without derivatization by RPLC-MS/MS using an Agilent 1200 LC coupled to an Agilent 6410 tandem quadrupole (Santa Clara, CA). A pooled sample generated by combining a small volume of all study samples was injected every 10th run and was used for intra-batch and inter-batch drift correction as described below. Absolute quantitation by isotope dilution mass spectrometry was performed for acylcarnitine species with exact-matching stable isotope internal standards (L-carnitine, C2, C3, C4, C5, C8, C14, C16) by multiplying the ratio of the unlabeled peak area/labeled peak area by the known concentration of acylcarnitine in the extraction solvent, then adjusting for dilution of the original serum sample. Other acylcarnitine species were limited to relative quantification by peak area.
By 90 days, 90% of the deaths occurred and the interaction term between L-carnitine treatment and mortality flattened (FIG. 7). Based on this analysis, 90-day mortality was chosen as the primary clinical outcome.
Statistical analysis: For logistic regression modeling, treatment assignment was scaled from 0 (placebo) to 1 (18 g L-carnitine) and age and SOFA score were z-scale normalized. Two main models were developed for each metabolite. The base model was described by log it(p)=B0+BD*Dose+BM*Metabolitei, where p is the probability of mortality in 90 days. The treatment interaction was modeled with: log it(p)=B0+(BD*Dose)+(BM*Metabolitei)+(BMD*Metabolitei)*Dose […]

SMILES: C[N+](C)(C)C[C@H](O)CC(=O)[O-] [L-carnitine]
- reduction in sequential organ failure assessment (SOFA) score at 48 hours ([1]; 6, 12 or 18 g): none of the tested L-carnitine doses produced a significant reduction
- absolute mortality reduction at 28 days compared to saline placebo ([1]; intention to treat analysis): 3%
- absolute mortality reduction at 28 days compared to saline placebo ([1]; per protocol analysis): 6%
- predicted probability of 90-day mortality (interaction logistic regression model) ([2]; as baseline acetylcarnitine concentration increases, dose 0, 6, 12, 18 g): declines with increasing L-carnitine dose
- 90-day mortality ([2]; L-carnitine 18 g, p=0.002): 50%
- 90-day mortality ([2]; L-carnitine any dose, p=0.02): 69%
- proportion of 90-day non-survivors by dose received ([2]; low baseline acetylcarnitine tertile (normalized [−2.21, −0.508], n=79), placebo, 6, 12, 18 g, Fisher's exact test p=0.81): not associated with dose received; also recorded: not different between placebo or L-carnitine doses
- treatment benefit (90-day mortality) ([2]; patients with acetylcarnitine less than 36 μM): no treatment benefit
- treatment / mortality benefit ([2]; patients with acetylcarnitine ≥26 μM, L-carnitine 18 g, additional analysis (trend)): received a treatment benefit; also recorded: derived a mortality benefit
- hazard ratio (Mantel-Haenszel) ([2]; scenario 1: no acetylcarnitine threshold): not significant
- Kaplan-Meier curve, mortality benefit ([2]; scenario 1: no acetylcarnitine threshold, n=170, p=0.28): no mortality benefit
- hazard ratio (Mantel-Haenszel) ([2]; scenario 2: acetylcarnitine (C2) threshold ≥26 μM): improved but is not significant
- Kaplan-Meier curve, mortality benefit ([2]; scenario 2: acetylcarnitine (C2) threshold ≥26 μM, 52 patients, p=0.14): no mortality benefit
- hazard ratio (Mantel-Haenszel) ([2]; scenario 3: acetylcarnitine (C2) threshold ≥30 μM): significant and favors L-carnitine (18 g)
- Kaplan-Meier curve, mortality benefit ([2]; scenario 3: acetylcarnitine (C2) threshold ≥30 μM, 42 patients, p=0.01): mortality benefit
- hazard ratio (Mantel-Haenszel) ([2]; scenario 4: acetylcarnitine (C2) threshold ≥36 μM): significant
- Kaplan-Meier curve, mortality benefit ([2]; scenario 4: acetylcarnitine (C2) threshold ≥36 μM, 34 patients, p=0.004): mortality benefit
